Reference: PubChem BioAssay (NCI)
“And” between values parts separate entries of the source, which are not always exact repeats. Equal entries are not always repeated.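 A five-concentration, 48-hour dose response in 96-well plates underlies each endpoint, interpolated linearly between surrounding concentrations. Abbreviation: GI50, concentration required for 50% inhibition of growth. TGI is the concentration that stops growth completely.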

Key:
Test in all cases: growth of human tumour cells (NCI), 48 h
BT-549 breast = tested on: BT-549 breast
CAKI-1 renal = tested on: CAKI-1 renal
COLO 205 colon = tested on: COLO 205 colon
HT29 colon = tested on: HT29 colon
LOX IMVI melanoma = tested on: LOX IMVI melanoma
NCI/ADR-RES ovarian = tested on: NCI/ADR-RES ovarian
SF-268 CNS = tested on: SF-268 CNS
SF-539 CNS = tested on: SF-539 CNS
SK-OV-3 ovarian = tested on: SK-OV-3 ovarian
SN12C renal = tested on: SN12C renal

| Structure (SMILES) | GI50 (BT-549 breast) [µM] | TGI (BT-549 breast) [µM] | GI50 (CAKI-1 renal) [µM] | TGI (CAKI-1 renal) | GI50 (COLO 205 colon) [µM] | TGI (COLO 205 colon) | GI50 (HT29 colon) [µM] | TGI (HT29 colon) | GI50 (LOX IMVI melanoma) [µM] | TGI (LOX IMVI melanoma) | GI50 (NCI/ADR-RES ovarian) [µM] | TGI (NCI/ADR-RES ovarian) [µM] | GI50 (SF-268 CNS) [µM] | TGI (SF-268 CNS) [µM] | GI50 (SF-539 CNS) [µM] | TGI (SF-539 CNS) | GI50 (SK-OV-3 ovarian) [µM] | TGI (SK-OV-3 ovarian) [µM] | GI50 (SN12C renal) [µM] | TGI (SN12C renal) [µM] |
| --- | --- | --- | --- | --- | --- | --- | --- | --- | --- | --- | --- | --- | --- | --- | --- | --- | --- | --- | --- | --- |
| COC([CH2][Hg][n]1cnc2c1c(=O)n(C)c(=O)n2C)CN1C(=O)c2ccccc2S1(=O)=O (centres undefined) | > 100 | > 100 | > 100 | > 100 µM | > 100 | > 100 µM | > 100 | > 100 µM | > 100 | > 100 µM | > 100 | > 100 | > 100 | > 100 | > 100 | > 100 µM | > 100 | > 100 | > 100 | > 100 |
| O=C(Nc1ccccc1)c1c(O)[nH]c(=S)[nH]c1=O |  | 72 | 28 | 58.1 µM and 127 µM | 39.3 | 64.1 µM and 105 µM | 93.5 | 125 µM and > 250 µM | 54 | 73.6 µM and > 250 µM |  | 83.8 |  | 125 | 102 | 87.1 µM and > 250 µM |  | 122 |  | 112 |
| CC1CCc2nc[nH]c(=O)c21 (centres undefined) | > 100 | > 100 | > 100 | > 100 µM | > 100 | > 100 µM | > 100 | > 100 µM | > 100 | > 100 µM | > 100 | > 100 | > 100 | > 100 | > 100 | > 100 µM | > 100 | > 100 | > 100 | > 100 |
| Cn1cc(C2=C(c3c4n(c5ccccc35)CCCCC4)C(=O)NC2=O)c2ccccc21 | > 11.7 | > 25 | 2.53 | > 20.2 µM | 4.56 | > 18.8 µM | 2.57 | > 25 µM | 9.4 | > 25 µM | 2.17 | > 25 | 4.9 | > 25 | 2.86 | 15.5 µM | 7.11 | > 25 | 9.88 | > 25 |
| Nc1nc(-n2c(-c3ccccc3)nc3c(Br)cc(Br)cc3c2=O)nnc1-c1cccc(Cl)c1Cl | 19.1 | > 100 | 17 | > 100 µM | 8.88 | > 100 µM | 4.82 | > 100 µM | 4.06 | 37.2 µM | 2.01 | 6.88 | 20.3 | > 100 | 7.8 | 40.4 µM | 27.2 | > 100 | 18.8 | > 100 |
| COc1ccc2c(c1)sc1nc(-c3ccccc3)c(-c3cccc4ccccc34)n12 | 1.15 | > 93.2 | 0.792 | > 100 µM | 0.292 | 0.855 µM | 0.353 | 4.38 µM | 0.713 | > 100 µM | 0.47 | > 100 | 0.878 | > 100 | 0.385 |  | 0.369 | 2.79 | 1.02 | > 100 |
| CC(C)=CCC\C(C)=C/C=C/C(C)=C\C=C\C(C)=C/C=C/C=C(C)\C=C\C=C(C)/C=C/C=C(/C)CCC=C(C)C |  | > 100 |  | > 100 µM |  | > 100 µM |  | > 100 µM |  | > 100 µM |  | > 100 |  | > 100 |  | > 100 µM |  | > 100 |  | > 100 |
| C=CCO[C@H]1CO[C@H]2[C@@H]1OC[C@@H]2Oc1ccc(Nc2ccnc(Nc3ccc(O[C@H]4CO[C@H]5[C@@H]4OC[C@@H]5OCC=C)c(Cl)c3)n2)cc1Cl | 1.6 | 3.11 | 1.73 | 3.1 µM | 1.6 | 4.06 µM | 2.08 | 4.99 µM | 1.76 | 3.31 µM | 1.78 | 3.85 | 1.98 | 3.76 | 1.83 | 3.25 µM | 16.8 | 31.2 | 1.68 | 3.33 |
